Results reported in patent US12344615B2, “Substituted pyridines as ion channel modulators” (PRAXIS PRECISION MEDICINES, INC., priority 2019, dated 2025).

Biological target: T1, INaL v1.6 (late sodium current, HEK-293 cells expressing recombinant sodium channels) (Homo sapiens, UniProt Q9UQD0)
T1 construct: expressed in transfected cells; host or cells: HEK-293
Assay: Inhibition of ATX-II evoked Nav late current (INaL), PatchXpress electrophysiology
Format: cell-based
Conditions: HEK293, compound at 1 μM, late current evoked by ATX-II 300 nM
Experimental: Functional characterization of exemplary compounds to modulate voltage gated sodium currents was accomplished using the PatchXpress™ high throughput electrophysiology platforms (Molecular Devices, Sunnyvale, CA). HEK-293 cells expressing recombinant sodium channels were grown in DMEM/high-glucose Dulbecco's modified, 10% FBS, 2 mM sodium pyruvate, and G418. Nav channel expressing cells were grown to 50%-80% confluency and harvested by trypsinization. Trypsinized cells were washed and resuspended in extracellular buffer at a concentration of 1×10^6 cells/ml. The onboard liquid handling facility of the PatchXpress was used for dispensing cells and application of test compounds. Nav late currents were evoked by the application of ATX-II, 300 nM. Currents were evoked by depolarizing pulses to 0 mV for 200 ms from a non-inactivating holding potential (e.g., −120 mV to −150 mV) at a frequency of 0.1 Hz. Late current amplitude and stability were determined by analyzing the mean current amplitude over the 175-195 msec region of the 200 msec test pulse. Following steady state block with exemplary compounds (e.g., as described herein) at 1 μM, a Na^+ free solution containing an impermeant cation (e.g., Choline or NDMG) was added for determination of the 0 current level. Late current amplitudes for each test condition were determined from the mean of the 175-195 msec region of the 200 msec test pulse. Percent inhibition of steady state currents was calculated as (compound−baseline)/(control−baseline)*100, where control represents INaL recorded in the absence of compound.

T1 sequence (Q9UQD0 whole entry): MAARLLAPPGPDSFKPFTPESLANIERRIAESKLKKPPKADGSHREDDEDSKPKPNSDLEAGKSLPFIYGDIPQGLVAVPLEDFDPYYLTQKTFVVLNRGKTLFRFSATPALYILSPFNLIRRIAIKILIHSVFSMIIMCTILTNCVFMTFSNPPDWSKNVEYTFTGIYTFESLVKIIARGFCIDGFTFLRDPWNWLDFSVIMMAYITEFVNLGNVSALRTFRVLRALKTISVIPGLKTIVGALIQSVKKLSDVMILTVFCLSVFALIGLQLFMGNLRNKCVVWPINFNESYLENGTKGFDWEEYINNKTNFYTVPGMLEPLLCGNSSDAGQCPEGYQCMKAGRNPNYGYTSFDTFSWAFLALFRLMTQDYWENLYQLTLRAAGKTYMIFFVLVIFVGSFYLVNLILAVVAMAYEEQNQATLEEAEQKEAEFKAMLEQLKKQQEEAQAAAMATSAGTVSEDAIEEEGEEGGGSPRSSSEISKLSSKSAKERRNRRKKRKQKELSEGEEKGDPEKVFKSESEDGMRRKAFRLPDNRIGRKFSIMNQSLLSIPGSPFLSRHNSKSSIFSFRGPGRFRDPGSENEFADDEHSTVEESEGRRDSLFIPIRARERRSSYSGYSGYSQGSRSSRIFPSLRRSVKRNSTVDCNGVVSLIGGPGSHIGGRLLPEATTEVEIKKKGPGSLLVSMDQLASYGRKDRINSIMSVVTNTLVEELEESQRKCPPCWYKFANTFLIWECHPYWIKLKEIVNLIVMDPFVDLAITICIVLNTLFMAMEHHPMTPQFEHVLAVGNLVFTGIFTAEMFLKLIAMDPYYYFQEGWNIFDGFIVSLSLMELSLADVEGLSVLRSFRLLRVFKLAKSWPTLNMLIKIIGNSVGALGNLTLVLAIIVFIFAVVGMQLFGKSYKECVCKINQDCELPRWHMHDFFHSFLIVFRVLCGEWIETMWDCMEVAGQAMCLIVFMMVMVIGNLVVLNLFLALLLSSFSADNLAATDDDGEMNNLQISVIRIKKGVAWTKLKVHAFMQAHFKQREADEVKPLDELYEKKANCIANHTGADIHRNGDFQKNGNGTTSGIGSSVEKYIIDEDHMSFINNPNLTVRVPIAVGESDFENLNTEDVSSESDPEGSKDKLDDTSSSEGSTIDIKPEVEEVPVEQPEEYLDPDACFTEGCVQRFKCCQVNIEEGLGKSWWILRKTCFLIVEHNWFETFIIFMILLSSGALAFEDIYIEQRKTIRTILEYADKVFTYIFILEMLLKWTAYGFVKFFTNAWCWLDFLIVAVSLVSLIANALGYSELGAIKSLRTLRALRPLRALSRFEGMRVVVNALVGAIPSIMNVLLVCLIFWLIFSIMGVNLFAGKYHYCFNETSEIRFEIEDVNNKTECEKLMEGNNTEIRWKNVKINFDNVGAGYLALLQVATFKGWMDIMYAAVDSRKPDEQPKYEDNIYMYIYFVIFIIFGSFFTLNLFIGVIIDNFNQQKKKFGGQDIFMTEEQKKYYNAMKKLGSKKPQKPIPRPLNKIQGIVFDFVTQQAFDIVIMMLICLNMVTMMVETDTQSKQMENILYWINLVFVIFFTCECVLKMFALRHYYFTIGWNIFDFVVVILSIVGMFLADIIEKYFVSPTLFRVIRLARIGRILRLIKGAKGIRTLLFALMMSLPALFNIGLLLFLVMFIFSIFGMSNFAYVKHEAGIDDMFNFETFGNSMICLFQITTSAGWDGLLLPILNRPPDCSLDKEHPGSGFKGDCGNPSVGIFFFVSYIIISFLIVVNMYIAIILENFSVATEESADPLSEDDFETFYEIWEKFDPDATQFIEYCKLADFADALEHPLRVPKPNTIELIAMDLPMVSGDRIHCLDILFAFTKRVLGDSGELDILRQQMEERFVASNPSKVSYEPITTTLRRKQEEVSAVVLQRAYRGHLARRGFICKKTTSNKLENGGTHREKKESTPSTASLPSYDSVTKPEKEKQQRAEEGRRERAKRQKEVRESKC

Structure (SMILES) | inhibition at 1 µM [%]
Cc1c(-c2cnc(O[C@@H](C)C(F)(F)F)c(F)c2)ncc2nnc(C(F)(F)F)n12 [Compound 38, 6-[5-fluoro-6-[(1S)-2,2,2-trifluoro-1-methyl-ethoxy]-3-pyridyl]-5-methyl-3-(trifluoromethyl)-[1,2,4]triazolo[4,3-a]pyrazine] | 50 to 75
Cc1c(-c2cnc(O[C@H](C)C(F)(F)F)c(F)c2)ncc2nnc(C(F)(F)F)n12 [Compound 39, 6-[5-fluoro-6-[(1R)-2,2,2-trifluoro-1-methyl-ethoxy]-3-pyridyl]-5-methyl-3-(trifluoromethyl)-[1,2,4]triazolo[4,3-a]pyrazine] | 50 to 75
Cc1cc2nnc(C(F)(F)F)n2nc1-c1cnc(OC(C)(C)C(F)(F)F)c(F)c1 [Compound 40, 6-[5-fluoro-6-(2,2,2-trifluoro-1,1-dimethyl-ethoxy)-3-pyridyl]-7-methyl-3-(trifluoromethyl)-[1,2,4]triazolo[4,3-b]pyridazine] | > 75
CC(C)(Oc1ncc(-c2nn3c(C(F)(F)F)nnc3cc2Cl)cc1F)C(F)(F)F [Compound 41, 7-chloro-6-[5-fluoro-6-(2,2,2-trifluoro-1,1-dimethyl-ethoxy)-3-pyridyl]-3-(trifluoromethyl)-[1,2,4]triazolo[4,3-b]pyridazine] | > 75
C[C@@H](Oc1ncc(-c2nn3c(C(F)(F)F)nnc3cc2Cl)cc1F)C(F)(F)F [Compound 42, 7-chloro-6-[5-fluoro-6-[(1R)-2,2,2-trifluoro-1-methyl-ethoxy]-3-pyridyl]-3-(trifluoromethyl)-[1,2,4]triazolo[4,3-b]pyridazine] | 50 to 75
C[C@H](Oc1ncc(-c2nn3c(C(F)(F)F)nnc3cc2Cl)cc1F)C(F)(F)F [Compound 43, 7-chloro-6-[5-fluoro-6-[(1S)-2,2,2-trifluoro-1-methyl-ethoxy]-3-pyridyl]-3-(trifluoromethyl)-[1,2,4]triazolo[4,3-b]pyridazine] | 50 to 75
Cc1cc2nnc(C(F)(F)F)n2nc1-c1cnc(O[C@@H](C)C(F)(F)F)c(F)c1 [Compound 44, (S)-6-(5-fluoro-6-((1,1,1-trifluoropropan-2-yl)oxy)pyridin-3-yl)-7-methyl-3-(trifluoromethyl)-[1,2,4]triazolo[4,3-b]pyridazine] | > 75
Cc1cc2nnc(C(F)(F)F)n2nc1-c1cnc(O[C@H](C)C(F)(F)F)c(F)c1 [Compound 45, (R)-6-(5-fluoro-6-((1,1,1-trifluoropropan-2-yl)oxy)pyridin-3-yl)-7-methyl-3-(trifluoromethyl)-[1,2,4]triazolo[4,3-b]pyridazine] | 50 to 75
C[C@H](Oc1ccc(-c2nn3c(C(F)(F)F)nnc3cc2Cl)cn1)C(F)(F)F [Compound 46, (S)-7-chloro-3-(trifluoromethyl)-6-(6-((1,1,1-trifluoropropan-2-yl)oxy)pyridin-3-yl)-[1,2,4]triazolo[4,3-b]pyridazine] | > 75
C[C@@H](Oc1ccc(-c2nn3c(C(F)(F)F)nnc3cc2Cl)cn1)C(F)(F)F [Compound 47, (R)-7-chloro-3-(trifluoromethyl)-6-(6-((1,1,1-trifluoropropan-2-yl)oxy)pyridin-3-yl)-[1,2,4]triazolo[4,3-b]pyridazine] | 50 to 75
Cc1cc2nnc(C(F)(F)F)n2nc1-c1ccc(O[C@@H](C)C(F)(F)F)nc1 [Compound 48, (S)-7-methyl-3-(trifluoromethyl)-6-(6-((1,1,1-trifluoropropan-2-yl)oxy)pyridin-3-yl)-[1,2,4]triazolo[4,3-b]pyridazine] | > 75
Cc1cc2nnc(C(F)(F)F)n2nc1-c1ccc(O[C@H](C)C(F)(F)F)nc1 [Compound 49, (R)-7-methyl-3-(trifluoromethyl)-6-(6-((1,1,1-trifluoropropan-2-yl)oxy)pyridin-3-yl)-[1,2,4]triazolo[4,3-b]pyridazine] | 50 to 75
CC(C)(Oc1ccc(-c2nn3c(C(F)(F)F)nnc3cc2Cl)cn1)C(F)(F)F [Compound 50, 7-chloro-6-[6-(2,2,2-trifluoro-1,1-dimethyl-ethoxy)-3-pyridyl]-3-(trifluoromethyl)-[1,2,4]triazolo[4,3-b]pyridazine] | > 75
Cc1cc2nnc(C(F)(F)F)n2nc1-c1ccc(OC(C)(C)C(F)(F)F)nc1 [Compound 51, 7-methyl-6-[6-(2,2,2-trifluoro-1,1-dimethyl-ethoxy)-3-pyridyl]-3-(trifluoromethyl)-[1,2,4]triazolo[4,3-b]pyridazine] | 50 to 75
FC(F)c1nnc2cnc(-c3ccc(OC4CC(F)(F)C4)nc3)cn12 [Compound 52, 6-(6-(3,3-difluorocyclobutoxy)pyridin-3-yl)-3-(difluoromethyl)-[1,2,4]triazolo [4,3-a]pyrazine] | 50 to 75
